Reference: article PMC13198257, “An aerosolized dual-action autotaxin inhibitor-PPARγ agonist for the treatment of pulmonary fibrosis” (Cell Reports Medicine, 2026)

Test system: lung gene expression
Test: RNA sequencing of lung tissue (BLM/EL244 vs BLM)
Format: in vivo, mouse
Method: RNA quality was assessed using an Agilent TapeStation 4150 with the High Sensitivity […] ScreenTape (Agilent), according to the manufacturer’s protocols. For library preparation, the QuantSeq 3’mRNA-Seq Library Prep Kit (Lexogen) was used according to manufacturer’s instructions. Briefly, 500 ng of RNA from each sample was used for first-strand synthesis, followed by RNA template removal, and second-strand synthesis initiated by random primers. In-line barcodes were introduced at this step, and this was followed by magnetic bead-based purification. The resulting libraries were amplified for 15 cycles and re-purified, with quantity and quality assessed on a Qubit 4 Fluorometer with the Invitrogen Qubit dsDNA HS Assay and an Agilent Tapestation 4150 with the High Sensitivity D1000 assay kit, respectively. The quantified libraries were pooled equimolarly; 50ng of total library mix was used for Adapter Conversion PCR Amplification using the Universal Library Conversion Kit (App-A), Version: V1.0 (MGI Tech Co., Ltd.), according to the manufacturer’s instructions.
The quantity and quality of the purified adapter conversion PCR (AC-PCR) product were evaluated on a Qubit 4 Fluorometer with the Invitrogen Qubit dsDNA HS Assay and on an Agilent Tapestation 4150 with the High Sensitivity D1000 assay kit, respectively. This was followed by DNA denaturation, Single-Strand Circularisation, Enzymatic Digestion, Enzymatic Digestion Product Cleanup and Quality Control steps on 1 pmol of AC-PCR product, according to the Universal Library Conversion Kit (App-A) User Manual (Version: A3).
Finally, 60 fmol of ssCirDNA were used for DNB preparation and sequencing on a DNBSEQ-G400 platform at the BSRC Alexander Fleming Genomics Facility, using a G400 App-A FCS SE100 High-throughput Sequencing Set (MGI Tech Co., Ltd.), according to the manufacturer’s instructions.
Alignment of the FASTQ files was performed against the mouse genome build mm10 using a custom Bash script.[143] Read counting on the 3′ UTRs and differential expression analysis were conducted using the metaseqR2 bioconductor package.[144] Genes corresponding to the following biotypes were excluded: polymorphic_pseudogene, processed_transcript, pseudogene, IG_V_pseudogene, misc_RNA, IG_C_gene, IG_J_gene, IG_D_gene, IG_LV_gene, TR_V_gene, TR_V_pseudogene, TEC, and processed_pseudogene. Gene counts were normalized with DESEQ[145] through metaseqR2. Genes with more than 10 counts in at least 50% of the samples were kept for further processing. For differential expression analysis, the PANDORA algorithm[146] was used to estimate a meta p-value integrating the results from the DESEQ, DESEQ2,[147] edgeR,[148] limma,[149] NBPSeq,[150] and NOISeq[151] algorithms. All additional parameters were set to default values.
Pathway enrichment analysis was performed for the Gene Ontology Biological process (BP) and Molecular Function (MF) terms through GeneCodis 4.[152] The volcano plots, scatterplots, Venn diagrams, and dot plots were generated using the ggplot2 Bioconductor package.

SMILES: O=C1NC(=O)C(Cc2ccc(OCCC3CCN(C(=O)OCc4cc(Cl)cc(Cl)c4)CC3)cc2)S1 (stereo not drawn) [EL244, 3,5-dichlorobenzyl 4-(2-(4-((2,4-dioxothiazolidin-5-yl)methyl)phenoxy)ethyl)piperidine-1-carboxylate]
- Rbm24 nFC (BLM/EL244 vs BLM, lung tissue): 2.29
- Rdh12 log2 nFC (BLM/EL244 vs BLM, lung tissue): 1.74
- Rdh12 nFC (BLM/EL244 vs BLM, lung tissue): 3.34
- Retnlg log2 nFC (BLM/EL244 vs BLM, lung tissue): 1.46
- Retnlg nFC (BLM/EL244 vs BLM, lung tissue): 2.74
- Ryr2 log2 nFC (BLM/EL244 vs BLM, lung tissue): 2.14
- Ryr2 nFC (BLM/EL244 vs BLM, lung tissue): 4.39
- S1pr5 log2 nFC (BLM/EL244 vs BLM, lung tissue): 1.64
- S1pr5 nFC (BLM/EL244 vs BLM, lung tissue): 3.12
- S100a8 log2 nFC (BLM/EL244 vs BLM, lung tissue): 1.52
- S100a8 nFC (BLM/EL244 vs BLM, lung tissue): 2.86
- S100a9 log2 nFC (BLM/EL244 vs BLM, lung tissue): 2.11
- S100a9 nFC (BLM/EL244 vs BLM, lung tissue): 4.32
- Scel log2 nFC (BLM/EL244 vs BLM, lung tissue): 1.31
- Scel nFC (BLM/EL244 vs BLM, lung tissue): 2.47
- Shank3 log2 nFC (BLM/EL244 vs BLM, lung tissue): 1.61
- Shank3 nFC (BLM/EL244 vs BLM, lung tissue): 3.05
- Slc38a4 log2 nFC (BLM/EL244 vs BLM, lung tissue): 1.12
- Slc38a4 nFC (BLM/EL244 vs BLM, lung tissue): 2.17
- Sln log2 nFC (BLM/EL244 vs BLM, lung tissue): 2.01
- Sln nFC (BLM/EL244 vs BLM, lung tissue): 4.02
- Smad6 log2 nFC (BLM/EL244 vs BLM, lung tissue): 1.18
- Smad6 nFC (BLM/EL244 vs BLM, lung tissue): 2.26
- Smpx log2 nFC (BLM/EL244 vs BLM, lung tissue): 2.34
- Smpx nFC (BLM/EL244 vs BLM, lung tissue): 5.08
- Smyd1 log2 nFC (BLM/EL244 vs BLM, lung tissue): 1.73
- Smyd1 nFC (BLM/EL244 vs BLM, lung tissue): 3.32
- Snhg11 log2 nFC (BLM/EL244 vs BLM, lung tissue): 1.40
- Snhg11 nFC (BLM/EL244 vs BLM, lung tissue): 2.64
- Snx21 log2 nFC (BLM/EL244 vs BLM, lung tissue): 1.15
- Snx21 nFC (BLM/EL244 vs BLM, lung tissue): 2.21
- Sox18 log2 nFC (BLM/EL244 vs BLM, lung tissue): 1.91
- Sox18 nFC (BLM/EL244 vs BLM, lung tissue): 3.76
- Spink5 log2 nFC (BLM/EL244 vs BLM, lung tissue): 1.36
- Spink5 nFC (BLM/EL244 vs BLM, lung tissue): 2.57
- Tbata log2 nFC (BLM/EL244 vs BLM, lung tissue): 1.72
- Tbata nFC (BLM/EL244 vs BLM, lung tissue): 3.30
- Tcap log2 nFC (BLM/EL244 vs BLM, lung tissue): 1.73
- Tcap nFC (BLM/EL244 vs BLM, lung tissue): 3.32
- Tex11 log2 nFC (BLM/EL244 vs BLM, lung tissue): 1.83
- Tex11 nFC (BLM/EL244 vs BLM, lung tissue): 3.55
- Tmem182 log2 nFC (BLM/EL244 vs BLM, lung tissue): 2.26
- Tmem182 nFC (BLM/EL244 vs BLM, lung tissue): 4.78
- Tmem132d log2 nFC (BLM/EL244 vs BLM, lung tissue): 2.38
- Tmem132d nFC (BLM/EL244 vs BLM, lung tissue): 5.19
- Tnnc1 log2 nFC (BLM/EL244 vs BLM, lung tissue): 2.18
- Tnnc1 nFC (BLM/EL244 vs BLM, lung tissue): 4.53
- Tnni3 log2 nFC (BLM/EL244 vs BLM, lung tissue): 2.31
- Tnni3 nFC (BLM/EL244 vs BLM, lung tissue): 4.95
- Tnnt2 log2 nFC (BLM/EL244 vs BLM, lung tissue): 1.77
- Tnnt2 nFC (BLM/EL244 vs BLM, lung tissue): 3.42
- Ttn log2 nFC (BLM/EL244 vs BLM, lung tissue): 2.53
- Ttn nFC (BLM/EL244 vs BLM, lung tissue): 5.78
- Upk3b log2 nFC (BLM/EL244 vs BLM, lung tissue): 1.53
- Upk3b nFC (BLM/EL244 vs BLM, lung tissue): 2.88
- Xndc1 log2 nFC (BLM/EL244 vs BLM, lung tissue): 1.14
- Xndc1 nFC (BLM/EL244 vs BLM, lung tissue): 2.21
- Zbtb16 log2 nFC (BLM/EL244 vs BLM, lung tissue): 1.33
- Zbtb16 nFC (BLM/EL244 vs BLM, lung tissue): 2.51
- Zmynd10 log2 nFC (BLM/EL244 vs BLM, lung tissue): 1.28
- Zmynd10 nFC (BLM/EL244 vs BLM, lung tissue): 2.44
- 1810010H24Rik log2 nFC BLM/EL244 vs BLM (DEG 1810010H24Rik, nFC: normalised fold change): 0.90
- 1810020O05Rik log2 nFC BLM/EL244 vs BLM (DEG 1810020O05Rik, nFC: normalised fold change): 1.58
- 2410004I01Rik log2 nFC BLM/EL244 vs BLM (DEG 2410004I01Rik, nFC: normalised fold change): 1.80
- 9330159F19Rik log2 nFC BLM/EL244 vs BLM (DEG 9330159F19Rik, nFC: normalised fold change): 1.78
- 9530026P05Rik log2 nFC BLM/EL244 vs BLM (DEG 9530026P05Rik, nFC: normalised fold change): 3.17
- A3galt2 log2 nFC BLM/EL244 vs BLM (DEG A3galt2, nFC: normalised fold change): 2.32
- log2 nFC BLM/EL244 vs BLM (DEG AA467197): -1.39
- Abca8a log2 nFC BLM/EL244 vs BLM (DEG Abca8a, nFC: normalised fold change): 0.75
- Abi3bp log2 nFC BLM/EL244 vs BLM (DEG Abi3bp, nFC: normalised fold change): 1.00
- Acaa1b log2 nFC BLM/EL244 vs BLM (DEG Acaa1b, nFC: normalised fold change): 1.43
- Acbd4 log2 nFC BLM/EL244 vs BLM (DEG Acbd4, nFC: normalised fold change): 0.86
- Acot1 log2 nFC BLM/EL244 vs BLM (DEG Acot1, nFC: normalised fold change): 1.08
- Acoxl log2 nFC BLM/EL244 vs BLM (DEG Acoxl, nFC: normalised fold change): 1.23
- Actc1 log2 nFC BLM/EL244 vs BLM (DEG Actc1, nFC: normalised fold change): 1.28
- Adam3 log2 nFC BLM/EL244 vs BLM (DEG Adam3, nFC: normalised fold change): 1.67
- log2 nFC BLM/EL244 vs BLM (DEG Adam12): -1.57
- log2 nFC BLM/EL244 vs BLM (DEG Adamts12): -1.47
- Adh7 log2 nFC BLM/EL244 vs BLM (DEG Adh7, nFC: normalised fold change): 1.02
- Alas2 log2 nFC BLM/EL244 vs BLM (DEG Alas2, nFC: normalised fold change): 1.58
- Aldh1a1 log2 nFC BLM/EL244 vs BLM (DEG Aldh1a1, nFC: normalised fold change): 0.78
- log2 nFC BLM/EL244 vs BLM (DEG Ankrd37): -1.50
- Ankrd44 log2 nFC BLM/EL244 vs BLM (DEG Ankrd44, nFC: normalised fold change): 0.84
- Ankrd63 log2 nFC BLM/EL244 vs BLM (DEG Ankrd63, nFC: normalised fold change): 1.34
- Aox3 log2 nFC BLM/EL244 vs BLM (DEG Aox3, nFC: normalised fold change): 1.07
- Aqp9 log2 nFC BLM/EL244 vs BLM (DEG Aqp9, nFC: normalised fold change): 1.66
- Ar log2 nFC BLM/EL244 vs BLM (DEG Ar, nFC: normalised fold change): 1.04
- Arhgap28 log2 nFC BLM/EL244 vs BLM (DEG Arhgap28, nFC: normalised fold change): 1.14
- Arhgef38 log2 nFC BLM/EL244 vs BLM (DEG Arhgef38, nFC: normalised fold change): 0.87
- Arl4a log2 nFC BLM/EL244 vs BLM (DEG Arl4a, nFC: normalised fold change): 0.70
- log2 nFC BLM/EL244 vs BLM (DEG Armcx4): -1.32
- Arrdc2 log2 nFC BLM/EL244 vs BLM (DEG Arrdc2, nFC: normalised fold change): 1.24
- Asgr1 log2 nFC BLM/EL244 vs BLM (DEG Asgr1, nFC: normalised fold change): 1.80
- Atp2a3 log2 nFC BLM/EL244 vs BLM (DEG Atp2a3, nFC: normalised fold change): 0.83
- Atp6v1c2 log2 nFC BLM/EL244 vs BLM (DEG Atp6v1c2, nFC: normalised fold change): 1.03
- Baiap3 log2 nFC BLM/EL244 vs BLM (DEG Baiap3, nFC: normalised fold change): 1.24
- Bbof1 log2 nFC BLM/EL244 vs BLM (DEG Bbof1, nFC: normalised fold change): 1.11
- log2 nFC BLM/EL244 vs BLM (DEG Bcl2a1d): -1.29
- Bex2 log2 nFC BLM/EL244 vs BLM (DEG Bex2, nFC: normalised fold change): 1.46
- Bmp6 log2 nFC BLM/EL244 vs BLM (DEG Bmp6, nFC: normalised fold change): 1.07
- Bpifa1 log2 nFC BLM/EL244 vs BLM (DEG Bpifa1, nFC: normalised fold change): 1.12
- log2 nFC BLM/EL244 vs BLM (DEG C1qa): -1.44
- log2 nFC BLM/EL244 vs BLM (DEG C1qb): -1.51
- log2 nFC BLM/EL244 vs BLM (DEG C1qc): -1.56
- log2 nFC BLM/EL244 vs BLM (DEG C1qtnf6): -1.38
- log2 nFC BLM/EL244 vs BLM (DEG C3ar1): -1.58
- C130080G10Rik log2 nFC BLM/EL244 vs BLM (DEG C130080G10Rik, nFC: normalised fold change): 3.58
- Car3 log2 nFC BLM/EL244 vs BLM (DEG Car3, nFC: normalised fold change): 1.57
- Casq2 log2 nFC BLM/EL244 vs BLM (DEG Casq2, nFC: normalised fold change): 2.36
- Cbr2 log2 nFC BLM/EL244 vs BLM (DEG Cbr2, nFC: normalised fold change): 0.91
- Ccdc153 log2 nFC BLM/EL244 vs BLM (DEG Ccdc153, nFC: normalised fold change): 0.79
- Ccdc171 log2 nFC BLM/EL244 vs BLM (DEG Ccdc171, nFC: normalised fold change): 1.04
- log2 nFC BLM/EL244 vs BLM (DEG Ccl2): -1.43
- log2 nFC BLM/EL244 vs BLM (DEG Ccl8): -1.54
